Source: ChEMBL document CHEMBL1155790 (Bioorg Med Chem, 2008)

Columns and labels:
[1] = target: T1, Acetylcholinesterase (Bos taurus) (UniProt P23795); assay: Inhibition of bovine AChE at 50 uM by Ellman's method
T1 sequence (whole entry): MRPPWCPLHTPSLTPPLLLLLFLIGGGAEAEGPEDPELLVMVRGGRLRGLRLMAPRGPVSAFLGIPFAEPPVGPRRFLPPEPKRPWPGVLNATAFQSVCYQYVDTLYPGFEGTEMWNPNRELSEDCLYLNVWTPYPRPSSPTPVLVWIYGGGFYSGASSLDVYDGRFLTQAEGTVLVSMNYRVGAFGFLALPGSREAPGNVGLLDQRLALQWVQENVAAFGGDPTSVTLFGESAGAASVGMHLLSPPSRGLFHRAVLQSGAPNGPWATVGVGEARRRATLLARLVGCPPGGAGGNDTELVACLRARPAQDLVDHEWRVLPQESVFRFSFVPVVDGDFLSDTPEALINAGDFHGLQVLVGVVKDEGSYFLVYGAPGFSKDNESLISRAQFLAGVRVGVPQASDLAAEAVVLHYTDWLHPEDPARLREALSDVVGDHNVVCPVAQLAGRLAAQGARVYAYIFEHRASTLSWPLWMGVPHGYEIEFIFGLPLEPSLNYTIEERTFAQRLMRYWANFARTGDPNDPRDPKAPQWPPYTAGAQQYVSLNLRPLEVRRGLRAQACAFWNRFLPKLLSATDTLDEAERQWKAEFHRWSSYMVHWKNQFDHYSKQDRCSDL

[2] = target: T1, Acetylcholinesterase (Bos taurus); assay: Inhibition of bovine AChE at 10 uM by Ellman's method
Acetylcholinesterase = target: T2, Acetylcholinesterase (Bos taurus, UniProt P23795)
T2 sequence (P23795 whole entry): T1 sequence (whole entry)
Description: Inhibition of bovine AChE by Ellman's method

[3] = Selectivity index, IC50 for equine BChE to IC50 for bovine AChE by Ellman's method
Cholinesterase = Cholinesterase (Equus caballus, UniProt P81908)
Chain of Cholinesterase (P81908 whole entry): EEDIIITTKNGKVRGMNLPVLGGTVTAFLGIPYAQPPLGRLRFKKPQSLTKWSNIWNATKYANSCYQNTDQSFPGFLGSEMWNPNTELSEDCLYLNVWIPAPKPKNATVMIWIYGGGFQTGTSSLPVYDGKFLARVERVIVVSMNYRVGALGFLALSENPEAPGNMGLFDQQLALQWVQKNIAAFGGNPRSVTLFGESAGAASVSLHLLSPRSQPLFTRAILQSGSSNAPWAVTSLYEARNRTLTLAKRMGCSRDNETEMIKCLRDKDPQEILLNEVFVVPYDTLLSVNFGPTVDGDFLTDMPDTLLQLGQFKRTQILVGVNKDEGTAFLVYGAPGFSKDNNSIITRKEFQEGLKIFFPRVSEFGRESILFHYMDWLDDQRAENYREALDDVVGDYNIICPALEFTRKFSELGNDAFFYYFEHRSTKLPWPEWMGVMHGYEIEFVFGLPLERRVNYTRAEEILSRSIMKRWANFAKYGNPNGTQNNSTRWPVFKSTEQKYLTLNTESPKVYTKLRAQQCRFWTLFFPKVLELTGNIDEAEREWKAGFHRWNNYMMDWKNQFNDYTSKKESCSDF
Description: Inhibition of equine BChE by Ellman's method

[4] = target: Cholinesterase (Equus caballus) (UniProt P81908); assay: Inhibition of equine BChE at 10 uM by Ellman's method
Chain of Cholinesterase (Equus caballus) (P81908 whole entry): as above

[5] = target: Cholinesterase (Equus caballus) (UniProt P81908); assay: Inhibition of equine BChE at 50 uM by Ellman's method

CN(Cc1ccccc1)c1cc(O)cc(OCCCOc2cc(O)cc(N(C)Cc3ccccc3)c2)c1
inhibition [1]: 3%

CN(Cc1ccccc1)c1cc(O)cc(OCCCCOc2cc(O)cc(N(C)Cc3ccccc3)c2)c1
inhibition [2]: 14% | inhibition [1]: 3%

Cc1c(C)c2ccc(OCCCCOc3cc(O)cc(N(C)Cc4ccccc4)c3)cc2oc1=O
inhibition [2]: 15%

C=CC[N+](C)(C)c1ccc(CCC(=O)CCc2ccc([N+](C)(C)CC=C)cc2)cc1
IC50 (Acetylcholinesterase): 8 nM

CC[N+](CC)(CCNC(=O)C(=O)NCC[N+](CC)(CC)Cc1ccccc1Cl)Cc1ccccc1Cl [AMBENONIUM]
IC50 (Acetylcholinesterase): 0.12 nM

Cc1c(C)c2ccc(OCCCOc3cc(O)cc(N(C)Cc4ccccc4)c3)cc2oc1=O
inhibition [2]: 8%

Cc1c(C)c2ccc(OCCCOc3cc(O)cc([N+](C)(C)C)c3)cc2oc1=O
Selectivity Index [3]: 505 | IC50 (Acetylcholinesterase): 2.1 nM | IC50 (Cholinesterase): 1060 nM

COc1ccc2c(C)c(C)c(=O)oc2c1
inhibition [4]: 25% | IC50 (Acetylcholinesterase): 42000 nM

Cc1c(C)c2ccc(OCCCCOc3cc(O)cc([N+](C)(C)C)c3)cc2oc1=O
Selectivity Index [3]: 708 | IC50 (Acetylcholinesterase): 1 nM | IC50 (Cholinesterase): 708 nM

C[N+](C)(C)c1cccc(OCCCCOc2cccc([N+](C)(C)C)c2)c1
Selectivity Index [3]: 15 | IC50 (Acetylcholinesterase): 158 nM | IC50 (Cholinesterase): 2340 nM

CN(C)c1cc(O)cc(OCCCOc2cc(O)cc(N(C)C)c2)c1
IC50 (Acetylcholinesterase): 1910 nM

C[N+](C)(C)c1cccc(O)c1
inhibition [4]: 13% | IC50 (Acetylcholinesterase): 12000 nM

C[N+](C)(C)c1cc(O)cc(OCCCCOc2cc(O)cc([N+](C)(C)C)c2)c1
IC50 (Cholinesterase): 715 nM

C[N+](C)(C)c1cc(O)cc(OCCCCOc2cc(O)cc([N+](C)(C)Cc3ccccc3)c2)c1
inhibition [4]: 42% | IC50 (Acetylcholinesterase): 6560 nM

CN(C)c1cc(O)cc(OCCCCOc2cc(O)cc(N(C)Cc3ccccc3)c2)c1
inhibition [2]: 40%

C[N+](C)(C)c1cc(O)cc(OCCCOc2cc(O)cc([N+](C)(C)C)c2)c1
Selectivity Index [3]: 1460 | IC50 (Acetylcholinesterase): 0.49 nM | IC50 (Cholinesterase): 718 nM

CN(C)c1cc(O)cc(OCCCOc2cc(O)cc(N(C)Cc3ccccc3)c2)c1
IC50 (Acetylcholinesterase): 6170 nM

CN(C)c1cc(O)cc(OCCCCOc2cc(O)cc(N(C)C)c2)c1
inhibition [5]: 25% | IC50 (Acetylcholinesterase): 6460 nM

Cc1c(C)c2ccc(OCCCOc3cc(O)cc(N(C)C)c3)cc2oc1=O
IC50 (Acetylcholinesterase): 871 nM

Cc1c(C)c2ccc(OCCCCOc3cc(O)cc(N(C)C)c3)cc2oc1=O
inhibition [5]: 25% | IC50 (Acetylcholinesterase): 275 nM
